Reference: patent US20240336654A1, “ANTIMICROBIAL PEPTIDOMIMETICS” (SPEXIS AG, priority 2021, published 2024)
Where a SMILES comes first, the peptide text is derived from it. Bridges are numbered along the chain shown (N, C = ends). [ ]: non-standard residue; d: D form. dDab(iPr) = CC(C)NCC[C@@H](N)C(=O)O; Hyp = O=C(O)[C@@H]1C[C@@H](O)CN1; dCit = NC(=O)NCCC[C@@H](N)C(=O)O; Cit = NC(=O)NCCC[C@H](N)C(=O)O; Pen = CC(C)(S)[C@H](N)C(=O)O; dDab = NCC[C@@H](N)C(=O)O; Dab = NCC[C@H](N)C(=O)O

Columns and labels:
Type in all cases: cell-based
[1] = test system: Escherichia coli ATCC 25922; conditions: ATCC 25922
In short: (§1)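 The MIC is the lowest peptide concentration, in μg/mL, with no visible growth after 18-20 h incubation at 35 °C. Serial two-fold peptide dilutions in water with 0.002% P-80 final were added to bacteria in cation-adjusted MHII broth, about 5×10^5 CFU/mL, following modified CLSI microdilution.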

[2] = test system: Escherichia coli MCR-1 Af 45; conditions: MCR-1 Af 45
In short: as §1

[3] = test system: Klebsiella pneumoniae SSI3010; conditions: SSI3010
In short: as §1

[4] = test system: human red blood cells (hRBC); conditions: red cells of human, 1 h, 200 μg/mL
In short: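 Percent hemolysis derived from OD540 of supernatants relative to full lysis by 2.5% Triton X-100 (PBS baseline). Washed fresh human erythrocytes (20% v/v) were exposed to 200 μg/mL peptide for 1 h at 37 °C with shaking.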

| Structure (SMILES) | Escherichia coli ATCC 25922 MIC [1] [mg/L] | Escherichia coli MCR-1 Af45 MIC [2] [mg/L] | Klebsiella pneumoniae SSI3010 MIC [3] [mg/L] | Hemolysis at 0.2 g/L [4] [%] |
| --- | --- | --- | --- | --- |
| CC[C@H](C)[C@H](NC(=O)[C@@H]1C[C@@H](O)CN1C(=O)[C@@H](N)C(C)C)C(=O)N[C@@H]1C(=O)N[C@@H](Cc2ccc(O)cc2)C(=O)N[C@@H](CO)C(=O)N[C@@H](CC(N)=O)C(=O)N[C@@H](CCCNC(=N)N)C(=O)N[C@@H](CCN)C(=O)N[C@@H](CC(N)=O)C(=O)N[C@H](CCN)C(=O)N[C@@H](CCCCN)C(=O)N[C@@H](CCN)C(=O)N[C@@H](CCN)C(=O)N[C@H](C(=O)N[C@@H](Cc2ccc(O)cc2)C(=O)O)CSSC1(C)C [Example 31, Val-Hyp-Ile-Pen-Tyr-Ser-Asn-Arg-Dab-Asn-^DDab-Lys-Dab-Dab-Cys-Tyr] (H-V[Hyp]I[Pen]YSNR[Dab]N[dDab]K[Dab][Dab]CY-OH; disulfide 4-15) | 0.125 | 0.125 | 0.25 | <1 |
| CC[C@H](C)[C@H](NC(=O)[C@@H]1C[C@@H](O)CN1C(=O)[C@@H](N)C(C)C)C(=O)N[C@@H]1C(=O)N[C@@H](Cc2ccc(O)cc2)C(=O)N[C@@H](CCN)C(=O)N[C@@H](CC(N)=O)C(=O)N[C@@H](CCCNC(=N)N)C(=O)N[C@@H](CCN)C(=O)N[C@@H](CO)C(=O)N[C@H](CCN)C(=O)N[C@@H](CCCCN)C(=O)N[C@@H](CCN)C(=O)N[C@@H](CO)C(=O)N[C@H](C(=O)N[C@@H](Cc2ccc(O)cc2)C(=O)O)CSSC1(C)C [Example 32, Val-Hyp-Ile-Pen-Tyr-Dab-Asn-Arg-Dab-Ser-^DDab-Lys-Dab-Ser-Cys-Tyr] (H-V[Hyp]I[Pen]Y[Dab]NR[Dab]S[dDab]K[Dab]SCY-OH; disulfide 4-15) | 1 | 0.5 | 0.5 | <1 |
| CC[C@H](C)[C@H](NC(=O)[C@@H]1C[C@@H](O)CN1C(=O)[C@@H](N)C(C)C)C(=O)N[C@@H]1C(=O)N[C@@H](Cc2ccc(O)cc2)C(=O)N[C@@H](CO)C(=O)N[C@@H](CC(N)=O)C(=O)N[C@@H](CCCNC(=N)N)C(=O)N[C@@H](CCN)C(=O)N[C@@H](CO)C(=O)N[C@H](CCN)C(=O)N[C@@H](CCCCN)C(=O)N[C@@H](CCN)C(=O)N[C@@H](CCN)C(=O)N[C@H](C(=O)N[C@@H](Cc2ccc(O)cc2)C(=O)O)CSSC1(C)C [Example 33, Val-Hyp-Ile-Pen-Tyr-Ser-Asn-Arg-Dab-Ser-^DDab-Lys-Dab-Dab-Cys-Tyr] (H-V[Hyp]I[Pen]YSNR[Dab]S[dDab]K[Dab][Dab]CY-OH; disulfide 4-15) | 0.125 | 0.125 | 0.125 | <1 |
| CC[C@H](C)[C@H](NC(=O)[C@@H]1C[C@@H](O)CN1C(=O)[C@@H](N)C(C)C)C(=O)N[C@@H]1C(=O)N[C@@H](Cc2ccc(O)cc2)C(=O)N[C@@H](CO)C(=O)N[C@@H](CC(N)=O)C(=O)N[C@@H](CCCNC(=N)N)C(=O)N[C@@H](CCN)C(=O)N[C@@H]([C@@H](C)O)C(=O)N[C@H](CCCCN)C(=O)N[C@@H](CCCCN)C(=O)N[C@@H](CCN)C(=O)N[C@@H](CCN)C(=O)N[C@H](C(=O)N[C@@H](Cc2ccc(O)cc2)C(=O)O)CSSC1(C)C [Example 35, Val-Hyp-Ile-Pen-Tyr-Ser-Asn-Arg-Dab-Thr-^DLys-Lys-Dab-Dab-Cys-Tyr] (H-V[Hyp]I[Pen]YSNR[Dab]T[dK]K[Dab][Dab]CY-OH; disulfide 4-15) | 0.125 | 0.0625 | 0.25 | <1 |
| CC[C@H](C)[C@H](NC(=O)[C@@H]1C[C@@H](O)CN1C(=O)[C@@H](N)C(C)C)C(=O)N[C@@H]1C(=O)N[C@@H](Cc2ccc(O)cc2)C(=O)N[C@@H](CO)C(=O)N[C@@H](CC(N)=O)C(=O)N[C@@H](CCCNC(=N)N)C(=O)N[C@@H](CCN)C(=O)N[C@@H]([C@@H](C)O)C(=O)N[C@H](CCCNC(=N)N)C(=O)N[C@@H](CCCCN)C(=O)N[C@@H](CCN)C(=O)N[C@@H](CCN)C(=O)N[C@H](C(=O)N[C@@H](Cc2ccc(O)cc2)C(=O)O)CSSC1(C)C [Example 36, Val-Hyp-Ile-Pen-Tyr-Ser-Asn-Arg-Dab-Thr-^DArg-Lys-Dab-Dab-Cys-Tyr] (H-V[Hyp]I[Pen]YSNR[Dab]T[dR]K[Dab][Dab]CY-OH; disulfide 4-15) | 0.125 | 0.125 | 0.125 | <1 |
| CC[C@H](C)[C@H](NC(=O)[C@@H]1C[C@@H](O)CN1C(=O)[C@@H](N)C(C)C)C(=O)N[C@@H]1C(=O)N[C@@H](Cc2ccc(O)cc2)C(=O)N[C@@H](CO)C(=O)N[C@@H](CC(N)=O)C(=O)N[C@@H](CCCNC(=N)N)C(=O)N[C@@H](CCN)C(=O)N[C@@H]([C@@H](C)O)C(=O)N[C@H](CCCNC(N)=O)C(=O)N[C@@H](CCCCN)C(=O)N[C@@H](CCN)C(=O)N[C@@H](CCN)C(=O)N[C@H](C(=O)N[C@@H](Cc2ccc(O)cc2)C(=O)O)CSSC1(C)C [Example 37, Val-Hyp-Ile-Pen-Tyr-Ser-Asn-Arg-Dab-Thr-^DCit-Lys-Dab-Dab-Cys-Tyr] (H-V[Hyp]I[Pen]YSNR[Dab]T[dCit]K[Dab][Dab]CY-OH; disulfide 4-15) | 0.5 | 0.5 | 0.5 | <1 |
| CC[C@H](C)[C@H](NC(=O)[C@@H]1C[C@@H](O)CN1C(=O)[C@@H](N)C(C)C)C(=O)N[C@@H]1C(=O)N[C@@H](Cc2ccc(O)cc2)C(=O)N[C@@H](CO)C(=O)N[C@@H](CC(N)=O)C(=O)N[C@@H](CCCNC(=N)N)C(=O)N[C@@H](CCN)C(=O)N[C@@H]([C@@H](C)O)C(=O)N[C@H](CCNC(C)C)C(=O)N[C@@H](CCCCN)C(=O)N[C@@H](CCN)C(=O)N[C@@H](CCN)C(=O)N[C@H](C(=O)N[C@@H](Cc2ccc(O)cc2)C(=O)O)CSSC1(C)C [Example 38, Val-Hyp-Ile-Pen-Tyr-Ser-Asn-Arg-Dab-Thr-^DDab(iPr)-Lys-Dab-Dab-Cys-Tyr] (H-V[Hyp]I[Pen]YSNR[Dab]T[dDab(iPr)]K[Dab][Dab]CY-OH; disulfide 4-15) | 0.125 | 0.125 | 0.5 | <1 |
| CC[C@H](C)[C@H](NC(=O)[C@@H]1C[C@@H](O)CN1C(=O)[C@@H](N)C(C)C)C(=O)N[C@@H]1C(=O)N[C@@H](Cc2ccc(O)cc2)C(=O)N[C@@H](CO)C(=O)N[C@@H](CC(N)=O)C(=O)N[C@@H](CCCNC(=N)N)C(=O)N[C@@H](CCN)C(=O)N[C@@H]([C@@H](C)O)C(=O)N[C@H](CCN)C(=O)N[C@@H](C)C(=O)N[C@@H](CCN)C(=O)N[C@@H](CCN)C(=O)N[C@H](C(=O)N[C@@H](Cc2ccc(O)cc2)C(=O)O)CSSC1(C)C [Example 39, Val-Hyp-Ile-Pen-Tyr-Ser-Asn-Arg-Dab-Thr-^DDab-Ala-Dab-Dab-Cys-Tyr] (H-V[Hyp]I[Pen]YSNR[Dab]T[dDab]A[Dab][Dab]CY-OH; disulfide 4-15) | 0.25 | 0.25 | 0.5 | <1 |
| CC[C@H](C)[C@H](NC(=O)[C@@H]1C[C@@H](O)CN1C(=O)[C@@H](N)C(C)C)C(=O)N[C@@H]1C(=O)N[C@@H](Cc2ccc(O)cc2)C(=O)N[C@@H](CO)C(=O)N[C@@H](CC(N)=O)C(=O)N[C@@H](CCCNC(=N)N)C(=O)N[C@@H](CCN)C(=O)N[C@@H]([C@@H](C)O)C(=O)N[C@H](CCN)C(=O)N[C@@H](CCCNC(N)=O)C(=O)N[C@@H](CCN)C(=O)N[C@@H](CCN)C(=O)N[C@H](C(=O)N[C@@H](Cc2ccc(O)cc2)C(=O)O)CSSC1(C)C [Example 40, Val-Hyp-Ile-Pen-Tyr-Ser-Asn-Arg-Dab-Thr-^DDab-Cit-Dab-Dab-Cys-Tyr] (H-V[Hyp]I[Pen]YSNR[Dab]T[dDab][Cit][Dab][Dab]CY-OH; disulfide 4-15) | 0.25 | 0.125 | 0.5 | <1 |
| CC[C@H](C)[C@H](NC(=O)[C@@H]1C[C@@H](O)CN1C(=O)[C@@H](N)C(C)C)C(=O)N[C@@H]1C(=O)N[C@@H](Cc2ccc(O)cc2)C(=O)N[C@@H](CO)C(=O)N[C@@H](CC(N)=O)C(=O)N[C@@H](CCCNC(=N)N)C(=O)N[C@@H](CCN)C(=O)N[C@@H]([C@@H](C)O)C(=O)N[C@H](CCN)C(=O)N[C@@H](Cc2ccc(O)cc2)C(=O)N[C@@H](CCN)C(=O)N[C@@H](CCN)C(=O)N[C@H](C(=O)N[C@@H](Cc2ccc(O)cc2)C(=O)O)CSSC1(C)C [Example 41, Val-Hyp-Ile-Pen-Tyr-Ser-Asn-Arg-Dab-Thr-^DDab-Tyr-Dab-Dab-Cys-Tyr] (H-V[Hyp]I[Pen]YSNR[Dab]T[dDab]Y[Dab][Dab]CY-OH; disulfide 4-15) | 0.125 | 0.125 | 0.25 | <1 |
